Measured values reported in US20110243924A1, “NOVEL METHODS” (priority 2007, published 2011).

Tests used:
[1] = biological target: T1, M2 human muscarinic receptor (Homo sapiens, UniProt P08172); assay: Binding of aclidinium metabolites to muscarinic receptors
T1 sequence (P08172 1-466): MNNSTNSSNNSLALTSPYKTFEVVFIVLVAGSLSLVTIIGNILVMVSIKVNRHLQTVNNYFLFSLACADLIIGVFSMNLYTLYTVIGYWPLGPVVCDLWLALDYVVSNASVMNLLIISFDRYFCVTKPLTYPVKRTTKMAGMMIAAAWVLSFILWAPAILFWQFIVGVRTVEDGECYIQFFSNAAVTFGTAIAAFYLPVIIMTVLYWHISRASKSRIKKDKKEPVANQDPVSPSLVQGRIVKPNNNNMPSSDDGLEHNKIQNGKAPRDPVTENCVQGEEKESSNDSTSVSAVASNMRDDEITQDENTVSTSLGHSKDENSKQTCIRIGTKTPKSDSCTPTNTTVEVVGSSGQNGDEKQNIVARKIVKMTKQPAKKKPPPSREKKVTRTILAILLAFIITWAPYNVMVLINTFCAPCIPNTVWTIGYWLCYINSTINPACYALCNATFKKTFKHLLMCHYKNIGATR
Protocol: (§1) Aclidinium is rapidly hydrolyzed in human plasma in its alcohol and acid metabolites. […] The plasma half life of aclidinium in plasma is lower than 5 minutes for human. Moreover, aclidinium is stable in acid aqueous solutions (pH≦4) and the hydrolytic cleavage of the ester bond takes place at neutral and basic pHs.

[2] = biological target: T2, M4 human muscarinic receptor (Homo sapiens, UniProt P08173); assay: as above
T2 sequence (P08173 1-479): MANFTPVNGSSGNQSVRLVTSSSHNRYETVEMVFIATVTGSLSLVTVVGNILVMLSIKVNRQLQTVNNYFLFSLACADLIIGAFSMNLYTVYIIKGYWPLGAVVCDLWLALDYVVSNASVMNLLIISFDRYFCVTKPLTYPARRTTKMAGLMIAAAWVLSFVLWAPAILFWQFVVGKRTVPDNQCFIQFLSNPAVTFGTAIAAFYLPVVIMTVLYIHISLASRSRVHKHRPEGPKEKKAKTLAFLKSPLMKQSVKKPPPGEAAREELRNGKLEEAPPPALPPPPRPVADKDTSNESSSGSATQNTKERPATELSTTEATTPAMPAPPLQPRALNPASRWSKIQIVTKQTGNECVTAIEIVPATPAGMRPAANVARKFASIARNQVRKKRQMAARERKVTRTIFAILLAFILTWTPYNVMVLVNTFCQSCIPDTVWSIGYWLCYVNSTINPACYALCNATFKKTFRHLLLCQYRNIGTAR
Protocol: as §1

[3] = biological target: M3 human muscarinic receptor (Homo sapiens, UniProt P20309); assay: as above
Protocol: as §1

[4] = biological target: T3, M1 human muscarinic receptor (Homo sapiens, UniProt P11229); assay: as above
T3 sequence (P11229 1-460): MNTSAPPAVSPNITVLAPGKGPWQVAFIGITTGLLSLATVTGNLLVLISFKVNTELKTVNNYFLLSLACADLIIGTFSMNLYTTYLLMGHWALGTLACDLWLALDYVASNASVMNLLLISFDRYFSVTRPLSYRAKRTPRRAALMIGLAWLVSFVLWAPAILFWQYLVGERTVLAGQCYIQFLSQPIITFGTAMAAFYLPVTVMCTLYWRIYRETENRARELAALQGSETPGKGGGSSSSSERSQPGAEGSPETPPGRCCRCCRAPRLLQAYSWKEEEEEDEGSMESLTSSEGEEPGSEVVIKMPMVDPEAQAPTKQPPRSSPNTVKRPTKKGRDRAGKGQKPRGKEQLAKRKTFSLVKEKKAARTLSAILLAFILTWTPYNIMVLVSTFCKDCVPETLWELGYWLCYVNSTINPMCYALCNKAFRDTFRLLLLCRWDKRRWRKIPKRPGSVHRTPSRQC
Protocol: as §1

Men with COPD = assay: Clinical Phase II study, single inhaled doses by dry powder inhaler; type: in vivo, human; conditions: for mean FEV1 AUC(0-24)/24: placebo 1.597 L
Text: Clinical Phase […] study: A double-blind, randothised, placebo-controlled, cross-over trial assesses the pharmacodynamics, pharmacokinetics and tolerability of aclidinium and its effects in COPD patients
Lung function measurements include FEV1 and FVC.

healthy male volunteers = assay: Clinical Phase I study, single inhaled doses by dry powder inhaler; type: in vivo, human
Protocol: Clinical Phase I study: Aclidinium bromide is tested in a Phase I, double-blind, partial cross-over, placebo controlled study to assess the activity, pharmacokinetics and tolerability of aclidinium.
Methods: 12 healthy male volunteers are randomly assigned to 1 of 4 treatment sequences comprising single doses of aclidinium (50, 300 and 600 micrograms) or placebo administered by dry powder inhaler. The washout period between administrations is at least 6 days. Efficacy endpoints are specific airway conductance (sGaw), airway resistance (Raw) and bronchial hyperresponsiveness (PC35 sGaw methacholine).

[5] = Stability in aqueous solutions; type: physicochemical; conditions: pH≦4
Protocol: as §1

[6] = In vitro stability in human plasma; type: in vitro ADME; conditions: human plasma (lithium heparin), 36° C.
Protocol: The in vitro experiments are carried out at 36° C. and at a concentration of 5 μg/ml (6 μl of a 1 mg/ml dimethyl sulfoxide solution of each substance is added to a final volume of 1.2 ml). After 3 minutes of pre-incubation, reaction is started by addition of the test substances. At pre-defined times of 0, 5, 15, 30 and 60 min., aliquots of 100 μl of the plasma are separated and the reaction stopped by the addition of 1 ml of a 20 mM, pH 4.0 sodium acetate buffer solution. The test substances are replaced with buffer for the control reactions. Human plasma is obtained from volunteers by written informed consent. The blood is collected in tubes containing lithium heparin as anticoagulant, immediately centrifuged at 4° C. and the resultant plasma stored at −20° C. when not in use.
Plasma samples, previously diluted with 1 ml of a 20 mM, pH 4.0 sodium acetate buffer solution, were loaded into the C2 cartridges. […] There are no significant endogenous peaks at retention times of the analytes that would interfere with their quantitation. […] The lower limit of quantitation is established at 5 mg/ml for all analytes.

[7] = after inhaled single doses 100, 300, 900 micrograms

M3 human muscarinic receptor, sequence (P20309 whole entry): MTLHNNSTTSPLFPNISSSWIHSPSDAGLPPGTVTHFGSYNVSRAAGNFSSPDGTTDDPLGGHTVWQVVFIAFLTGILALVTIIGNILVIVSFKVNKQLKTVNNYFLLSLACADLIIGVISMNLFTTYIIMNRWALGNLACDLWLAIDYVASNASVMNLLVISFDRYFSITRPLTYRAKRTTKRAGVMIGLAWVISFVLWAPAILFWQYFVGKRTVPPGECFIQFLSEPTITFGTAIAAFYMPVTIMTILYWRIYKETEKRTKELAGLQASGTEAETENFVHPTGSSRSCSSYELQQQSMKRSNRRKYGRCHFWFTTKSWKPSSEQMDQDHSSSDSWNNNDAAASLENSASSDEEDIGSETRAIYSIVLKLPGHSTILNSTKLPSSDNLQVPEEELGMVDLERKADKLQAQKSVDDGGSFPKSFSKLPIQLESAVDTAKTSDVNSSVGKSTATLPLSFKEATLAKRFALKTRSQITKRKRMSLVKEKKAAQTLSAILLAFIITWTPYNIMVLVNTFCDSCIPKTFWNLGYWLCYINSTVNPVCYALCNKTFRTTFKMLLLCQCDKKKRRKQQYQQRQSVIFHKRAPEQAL

| Compound | affinity for M2 human muscarinic receptor [1] | affinity for M4 human muscarinic receptor [2] | affinity for M3 human muscarinic receptor [3] | affinity for M1 human muscarinic receptor [4] | plasma levels (Men with COPD; following the 900 microgram dose) | PC35 sGaw methacholine (methacholine dose required to decrease sGaw) (healthy male volunteers; aclidinium 300 micrograms, at 2 h, placebo 35.5) [mg/mL] | PC35 sGaw methacholine (methacholine dose required to decrease sGaw) (healthy male volunteers; aclidinium 300 micrograms, at 24 h, placebo 27.1) [mg/mL] | PC35 sGaw methacholine (methacholine dose required to decrease sGaw) (healthy male volunteers; aclidinium 600 micrograms, at 2 h, placebo 35.5) [mg/mL] | PC35 sGaw methacholine (methacholine dose required to decrease sGaw) (healthy male volunteers; aclidinium 600 micrograms, at 24 h, placebo 27.1) [mg/mL] | detection in plasma (healthy male volunteers; after inhaled single doses 50-600 micrograms) | study-drug-related adverse events (healthy male volunteers; single inhaled doses 50-600 micrograms) | mean FEV1 AUC(0-24)/24 (Men with COPD; aclidinium 100 micrograms, p=0.002) [L] | mean FEV1 AUC(0-24)/24 (Men with COPD; aclidinium 300 micrograms, p<0.0001) [L] | mean FEV1 AUC(0-24)/24 (Men with COPD; aclidinium 900 micrograms) [L] | plasma levels (Men with COPD; [7]) | cases of mildly increased sweating possibly related to treatment (Men with COPD; human, in vivo) | tolerability (Men with COPD; single inhaled doses 100-900 micrograms) | cases of mild or moderate headache possibly related to treatment (Men with COPD; vs 2 with placebo) [cases] | stability in acid aqueous solutions [5] | half-life at 5 μg/ml [6] [min] |
| --- | --- | --- | --- | --- | --- | --- | --- | --- | --- | --- | --- | --- | --- | --- | --- | --- | --- | --- | --- | --- |
| O=C(O)C(O)(c1cccs1)c1cccs1 [acid metabolite] | devoid of significant affinity | devoid of significant affinity | devoid of significant affinity | devoid of significant affinity | low levels | – | – | – | – | – | – | – | – | – | – | – | – | – | – | – |
| O=C(O[C@H]1C[N+]2(CCCOc3ccccc3)CCC1CC2)C(O)(c1cccs1)c1cccs1 [aclidinium, 3(R)-(2-hydroxy-2,2-dithien-2-ylacetoxy)-1-(3-phenoxypropyl)-1-azoniabicyclo[2.2.2]octane] | – | – | – | – | – | 207.1 | 142.7 | 256.0 | 181.7 | Neither aclidinium nor its metabolites are detected | no study-drug-related adverse events | 1.800 | 1.798 | 1.827 | No plasma levels | 1 | well tolerated | 6 | stable | < 5 |
| O[C@H]1C[N+]2(CCCOc3ccccc3)CCC1CC2 [alcohol metabolite] | devoid of significant affinity | devoid of significant affinity | devoid of significant affinity | devoid of significant affinity | – | – | – | – | – | – | – | – | – | – | No plasma levels | – | – | – | – | – |
